Data as given in patent publication US8445636B2, “Antimicrobial and anticancer lipopeptides” (Yeda Research & Development Co. Ltd., priority 2003, dated 2013).
Converted amounts (≈) assume the structure as drawn. Where two headings read alike, the source gives them in different places. Non-standard residues stand in square brackets, D forms with d. Residues, ends and D or L forms follow the SMILES beside them. *: point of attachment. Lauroyl = CCCCCCCCCCCC(=O)*

Experiments:
[1] = tested on: Aspergillus fumigatus ATCC 26430; assay: microbe, parasite or virus in culture; format: cell-based
[2] = tested on: Prostate cancer cell line CL1; assay: Cytotoxicity, XTT viability; format: cell-based, human; details: 24 h incubation, read-out: LC50, Prostate cancer CL1
Procedure: (§1) Prostate cancer cell lines (CL1 and 22RV1; ATCC, USA) were grown in RPMI-1640 supplemented with 10% FCS (Biological Industries, Beit Haemek, Israel). N1H-3T3 mouse fibroblast cell line (ATCC, USA) was grown in DMEM supplemented with 10% bovine serum. To test cytotoxicity against the cancer cells, aliquots of medium containing 1×10^4 cells were distributed into a 96-well plate (Falcon). After one day, the media were replaced with 90 μl of fresh media and 10 μl of a solution containing different concentrations of the peptides. The plate was then incubated for 24 h before adding to each well 50 μl of XTT reaction solution (Biological Industries, Beit Haemek, Israel); viability was determined as previously described (Papo et al., (2003) J. Biol. Chem. 278:21018-23). The LC50 (concentration at which 50% of the cells die) for each peptide was obtained from the dose-dependent cell viability curves.

[3] = tested on: Prostate cancer cell line 22RV1; assay: Cytotoxicity, XTT viability; format: cell-based, human; details: 24 h incubation, read-out: LC50, Prostate cancer 22RV1
Procedure: as §1

[4] = Cytotoxicity, XTT viability, non-cancer cells; format: cell-based; details: mouse, non-cancer cell line, 24 h incubation, read-out: LC50, 3T3
Method in brief: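 Cells (CL1, 22RV1 in RPMI-1640/10% FCS; NIH-3T3 fibroblasts in DMEM/10% bovine serum) seeded at 1×10^4/well, next day exposed to graded peptide concentrations for 24 h. Viability read by XTT; LC50 (50% cell death) taken from dose-dependent viability curves.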

[5] = tested on: Cryptococcus neoformans ATCC 66031; assay: microbe, parasite or virus in culture; format: cell-based
Method in brief: (§2)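 Broth microdilution in RPMI 1640/0.165 M MOPS, 1×10^4 CFU/ml inoculum, 2-fold serial lipopeptide dilutions in water, pH 7.4 unless stated (pH 5.5 alternative). Incubated 24–48 h at 35 °C with agitation; growth read at A620. MIC = lowest concentration giving 100% growth inhibition.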

[6] = tested on: Candida albicans ATCC 10231; assay: microbe, parasite or virus in culture; format: cell-based
Method in brief: as §2

[7] = tested on: Staphylococcus aureus ATCC 6538P; format: cell-based
Method in brief: (§3)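 Broth microdilution: bacteria at 1×10^6 CFU/ml in LB medium (pH 7.4 unless stated; pH 5.5 also tested) mixed 1:1 with 2-fold serial lipopeptide dilutions in water, 18-20 h at 37° C. Growth read at 600 nm; MIC taken as lowest concentration giving 100% growth inhibition.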

[8] = tested on: Pseudomonas aeruginosa ATCC 27853; format: cell-based
Method in brief: as §3

[9] = tested on: Acinetobacter baumannii ATCC 19606; format: cell-based
Method in brief: as §3

[10] = tested on: Escherichia coli ATCC 25922; format: cell-based
Method in brief: as §3

E. coli D21 = format: cell-based

For `CCCCCCCCCCCC(=O)N[C@H](CC(C)C)C(=O)N[C@@H](CCCNC(=N)N)C(=O)N[C@@H](CCCNC(=N)N)C(=O)N[C@H](CC(C)C)C(=O)N[C@H](CC(C)C)C(=O)N[C@@H](CCCNC(=N)N)C(=O)N[C@@H](CCCNC(=N)N)C(=O)N[C@H](CC(C)C)C(=O)N[C@H](CC(C)C)C(=O)N[C@@H](CCCNC(=N)N)C(=O)N[C@@H](CCCNC(=N)N)C(=O)N[C@H](CC(C)C)C(N)=O` [lipopeptide 25, (CH3-(CH2)10-CO-)-D-Leu-Arg-Arg-D-Leu-D-Leu-Arg-Arg-D-Leu-D-Leu-Arg-Arg-D-Leu-NH2] (Lauroyl-[dL]RR[dL][dL]RR[dL][dL]RR[dL]-NH2), the MIC ([1]; ATCC 26430, pH 5.5, read-out: Minimal inhibitory concentrations, A. Fumig. With serum) was 50 µM (≈ 90.8 µg/mL), the MIC ([1]; ATCC 26430, pH 5.5, read-out: Minimal inhibitory concentrations, A. Fumig. Without serum) was 6.25 µM (≈ 11.3 µg/mL) and the MIC ([1]; ATCC 26430, pH 7.4, read-out: Minimal inhibitory concentrations, A. Fumig. With serum) was 50 µM (≈ 90.8 µg/mL). The MIC ([1]; ATCC 26430, pH 7.4, read-out: Minimal inhibitory concentrations, A. Fumig. Without serum) was 3.125 µM (≈ 5.67 µg/mL), the CC50 [2] was 3.12 µM and the CC50 [3] was 3.12 µM. The CC50 at 24 h [4] was 100 µM, the MIC ([5]; ATCC 66031, pH 5.5, read-out: Minimal inhibitory concentrations, C. Neofor. With serum) was 2.34 µM (≈ 4.25 µg/mL) and the MIC ([5]; ATCC 66031, pH 5.5, read-out: Minimal inhibitory concentrations, C. Neofor. Without serum) was <0.78 µM. For the same molecule, the MIC ([5]; ATCC 66031, pH 7.4, read-out: Minimal inhibitory concentrations, C. Neofor. With serum) was <0.78 µM, the MIC ([5]; ATCC 66031, pH 7.4, read-out: Minimal inhibitory concentrations, C. Neofor. Without serum) was <0.78 µM and the MIC ([6]; ATCC 10231, pH 5.5, read-out: Minimal inhibitory concentrations, C. Albicans With serum) was 100 µM (≈ 182 µg/mL). For the same molecule, the MIC ([6]; ATCC 10231, pH 5.5, read-out: Minimal inhibitory concentrations, C. Albicans Without serum) was 12.5 µM (≈ 22.7 µg/mL), the MIC ([6]; ATCC 10231, pH 7.4, read-out: Minimal inhibitory concentrations, C. Albicans With serum) was 100 µM (≈ 182 µg/mL) and the MIC ([6]; ATCC 10231, pH 7.4, read-out: Minimal inhibitory concentrations, C. Albicans Without serum) was 3.125 µM (≈ 5.67 µg/mL). For the same molecule, the “Minimal inhibitory concentrations, S. aureus II ATCC 6538P” value ([7]; ATCC 6538, pH 5.5) was 50 µM (≈ 90.8 µg/mL), the “Minimal inhibitory concentrations, S. aureus II ATCC 6538P” value ([7]; ATCC 6538, pH 7.4) was 12.5 µM (≈ 22.7 µg/mL) and the “Minimal inhibitory concentrations, P. Aeruginosa ATCC 27853” value ([8]; ATCC 27853, pH 5.5) was 50 µM (≈ 90.8 µg/mL). The “Minimal inhibitory concentrations, P. Aeruginosa ATCC 27853” value ([8]; ATCC 27853, pH 7.4) was 50 µM (≈ 90.8 µg/mL), the “Minimal inhibitory concentrations, A. baumannii ATCC 19606” value ([9]; ATCC 19606, pH 5.5) was 75 µM (≈ 136 µg/mL) and the “Minimal inhibitory concentrations, A. baumannii ATCC 19606” value ([9]; ATCC 19606, pH 7.4) was >100 µM. For the same molecule, the “Minimal inhibitory concentrations, E. Coli ATCC 25922” value ([10]; ATCC 25922, pH 5.5) was 100 µM (≈ 182 µg/mL), the “Minimal inhibitory concentrations, E. Coli ATCC 25922” value ([10]; ATCC 25922, pH 7.4) was >100 µM and the “Minimal inhibitory concentrations, E. Coli D21” value (E. coli D21; D21, pH 5.5) was 50 µM (≈ 90.8 µg/mL). The “Minimal inhibitory concentrations, E. Coli D21” value (E. coli D21; D21, pH 7.4) was 50 µM (≈ 90.8 µg/mL).
